Reference: ChEMBL document CHEMBL1201862, “PubChem BioAssay data set” (2004)
The source made the active and inactive calls.

Key:
Cytochrome P450 2C9 = Cytochrome P450 2C9 (Homo sapiens, UniProt P11712)
[1] = biological target: T1, Endoribonuclease toxin MazF (Escherichia coli K-12, UniProt P0AE70); assay: fluorescent RNA oligo signal without MazF, dose response, counter-screen for MazEF activator project, biochemical, fluorescence, single-stranded RNase substrate (AID 588502); assay type: functional
T1 sequence (P0AE70 whole entry): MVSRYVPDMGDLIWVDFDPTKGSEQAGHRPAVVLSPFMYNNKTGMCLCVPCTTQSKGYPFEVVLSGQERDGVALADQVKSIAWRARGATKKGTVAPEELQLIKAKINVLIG

[2] = biological target: T1, Endoribonuclease toxin MazF; assay: MazF toxin RNase activators, dose response, biochemical, fluorescence, single-stranded RNA substrate, uHTS hits (AID 588481); assay type: functional
[3] = biological target: T2, Sentrin-specific protease 7 (Homo sapiens, UniProt Q9BQF6); assay type: functional;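 further: Luminescence-based dose-response confirmation of ultra-high-throughput screening hits, measuring inhibition of SENP7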
T2 sequence (Q9BQF6 whole entry): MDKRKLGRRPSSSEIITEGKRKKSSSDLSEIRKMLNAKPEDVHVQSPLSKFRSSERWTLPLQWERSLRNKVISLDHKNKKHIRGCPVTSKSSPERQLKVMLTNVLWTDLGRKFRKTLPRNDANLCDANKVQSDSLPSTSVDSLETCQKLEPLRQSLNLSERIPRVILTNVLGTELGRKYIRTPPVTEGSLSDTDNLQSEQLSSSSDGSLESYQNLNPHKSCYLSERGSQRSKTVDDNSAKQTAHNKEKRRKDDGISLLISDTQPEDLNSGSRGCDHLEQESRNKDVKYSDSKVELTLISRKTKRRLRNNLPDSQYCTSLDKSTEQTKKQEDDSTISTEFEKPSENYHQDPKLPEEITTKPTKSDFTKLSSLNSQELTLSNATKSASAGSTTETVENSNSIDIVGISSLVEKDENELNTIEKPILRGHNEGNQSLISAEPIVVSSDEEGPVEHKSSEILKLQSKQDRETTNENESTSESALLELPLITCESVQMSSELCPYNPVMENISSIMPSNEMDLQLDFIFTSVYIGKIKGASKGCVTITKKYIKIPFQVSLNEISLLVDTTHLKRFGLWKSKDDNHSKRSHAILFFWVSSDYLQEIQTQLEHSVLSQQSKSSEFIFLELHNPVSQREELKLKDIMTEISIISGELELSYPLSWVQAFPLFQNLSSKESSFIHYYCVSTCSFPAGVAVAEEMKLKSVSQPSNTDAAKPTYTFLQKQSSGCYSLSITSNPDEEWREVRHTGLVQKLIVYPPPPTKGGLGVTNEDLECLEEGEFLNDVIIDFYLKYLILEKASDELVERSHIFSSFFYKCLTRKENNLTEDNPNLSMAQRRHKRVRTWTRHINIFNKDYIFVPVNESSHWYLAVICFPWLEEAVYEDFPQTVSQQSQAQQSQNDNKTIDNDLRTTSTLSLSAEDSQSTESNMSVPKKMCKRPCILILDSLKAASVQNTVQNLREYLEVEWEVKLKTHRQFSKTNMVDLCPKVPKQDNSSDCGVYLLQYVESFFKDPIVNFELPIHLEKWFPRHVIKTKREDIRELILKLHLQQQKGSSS

[4] = biological target: T3, Sentrin-specific protease 6 (Homo sapiens, UniProt Q9GZR1); assay type: functional;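 further: Luminescence-based dose-response confirmatory assay of SENP6 inhibition, following up an ultra-high-throughput screen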
T3 sequence (Q9GZR1 whole entry): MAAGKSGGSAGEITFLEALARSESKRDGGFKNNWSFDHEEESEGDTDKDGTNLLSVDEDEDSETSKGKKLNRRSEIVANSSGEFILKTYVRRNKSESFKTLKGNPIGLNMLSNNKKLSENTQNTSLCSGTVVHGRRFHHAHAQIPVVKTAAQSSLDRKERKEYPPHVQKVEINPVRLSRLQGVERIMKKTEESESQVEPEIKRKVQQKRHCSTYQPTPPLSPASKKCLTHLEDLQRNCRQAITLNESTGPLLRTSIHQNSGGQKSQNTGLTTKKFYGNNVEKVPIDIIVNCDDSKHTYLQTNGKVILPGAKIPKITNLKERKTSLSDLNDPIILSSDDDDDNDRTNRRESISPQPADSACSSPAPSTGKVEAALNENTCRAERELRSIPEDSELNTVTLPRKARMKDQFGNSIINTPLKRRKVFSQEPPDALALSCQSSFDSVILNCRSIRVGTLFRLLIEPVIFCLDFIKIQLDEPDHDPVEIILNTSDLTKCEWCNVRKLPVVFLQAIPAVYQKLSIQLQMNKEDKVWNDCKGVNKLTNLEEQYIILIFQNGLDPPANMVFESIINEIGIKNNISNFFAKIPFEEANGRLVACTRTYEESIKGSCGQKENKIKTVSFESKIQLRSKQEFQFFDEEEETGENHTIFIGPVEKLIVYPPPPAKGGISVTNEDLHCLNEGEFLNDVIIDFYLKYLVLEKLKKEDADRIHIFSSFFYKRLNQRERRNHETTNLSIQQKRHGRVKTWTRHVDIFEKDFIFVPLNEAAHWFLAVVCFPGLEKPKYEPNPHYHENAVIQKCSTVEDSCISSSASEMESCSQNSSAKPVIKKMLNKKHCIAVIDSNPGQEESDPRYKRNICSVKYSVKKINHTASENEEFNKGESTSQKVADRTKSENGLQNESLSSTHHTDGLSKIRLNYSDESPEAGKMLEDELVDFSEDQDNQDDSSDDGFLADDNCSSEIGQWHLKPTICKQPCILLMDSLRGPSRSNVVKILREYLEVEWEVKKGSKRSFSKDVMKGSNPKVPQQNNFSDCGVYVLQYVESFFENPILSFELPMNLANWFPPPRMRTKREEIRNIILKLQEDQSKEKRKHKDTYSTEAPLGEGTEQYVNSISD

[5] = biological target: T4, Sentrin-specific protease 8 (Homo sapiens, UniProt Q96LD8); assay type: functional;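 further: luminescence read-out of SENP8 inhibition, dose-response confirmation following an ultra-high-throughput screen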
T4 sequence (Q96LD8 whole entry): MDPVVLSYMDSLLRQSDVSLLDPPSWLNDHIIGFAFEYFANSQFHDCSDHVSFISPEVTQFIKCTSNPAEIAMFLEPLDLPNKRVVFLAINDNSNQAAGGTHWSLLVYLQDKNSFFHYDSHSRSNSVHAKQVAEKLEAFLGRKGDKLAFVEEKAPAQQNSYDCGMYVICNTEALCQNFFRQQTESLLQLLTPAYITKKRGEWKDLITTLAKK

Caspase-3 = biological target: T5, Caspase-3 (Homo sapiens, UniProt P42574); assay type: functional;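 further: Dose-response selectivity test against caspase-3 for candidate inhibitors of sentrin-specific proteases (SENPs)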
T5 sequence (P42574 whole entry): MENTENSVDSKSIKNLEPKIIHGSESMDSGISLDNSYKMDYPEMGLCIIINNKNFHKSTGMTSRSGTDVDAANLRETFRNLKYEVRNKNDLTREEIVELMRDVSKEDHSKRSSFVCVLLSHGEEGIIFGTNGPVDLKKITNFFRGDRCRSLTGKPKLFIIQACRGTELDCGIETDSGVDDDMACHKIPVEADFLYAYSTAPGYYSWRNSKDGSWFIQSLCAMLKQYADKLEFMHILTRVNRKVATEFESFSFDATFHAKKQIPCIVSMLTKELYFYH

[6] = Luminescence Cell-Based Dose Retest to Confirm Inhibitors of Cancer Stem Cells. [Related pubchem assays (depositor defined):AID2717, AID2721]; assay type: functional; settings: Homo sapiens
[7] = biological target: T6, Microphthalmia-associated transcription factor (Homo sapiens, UniProt O75030); assay: TRPM1 promoter luciferase signal decrease, dose response, MITF inhibitor project, cell-based, SK-MEL-5, cherry-picked, set 3 (AID 493073); assay type: functional
T6 sequence (O75030 whole entry): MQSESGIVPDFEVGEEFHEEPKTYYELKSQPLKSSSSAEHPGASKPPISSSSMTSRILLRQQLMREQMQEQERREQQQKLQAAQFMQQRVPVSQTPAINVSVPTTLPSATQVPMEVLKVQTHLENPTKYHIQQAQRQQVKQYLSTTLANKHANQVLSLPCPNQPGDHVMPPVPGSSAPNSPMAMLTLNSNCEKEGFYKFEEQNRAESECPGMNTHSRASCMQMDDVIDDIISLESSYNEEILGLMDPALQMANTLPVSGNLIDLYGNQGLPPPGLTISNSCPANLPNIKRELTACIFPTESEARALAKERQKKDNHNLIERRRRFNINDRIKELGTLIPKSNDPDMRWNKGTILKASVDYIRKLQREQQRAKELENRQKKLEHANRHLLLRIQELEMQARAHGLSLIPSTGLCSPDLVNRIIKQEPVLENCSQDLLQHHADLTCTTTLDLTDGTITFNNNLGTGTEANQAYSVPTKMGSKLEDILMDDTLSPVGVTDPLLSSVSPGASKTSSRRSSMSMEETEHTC

A-375 = assay: A375 melanoma cell viability reduction, dose response, counter-screen for MITF modulator project, cherry-pick samples, set 2 (AID 540335); assay type: functional, cell-based; settings: Homo sapiens
INS1 = assay: beta cell apoptosis inhibitors, cytokine rescue, dose response, luminescence, retest (AID 449756); assay type: functional, cell-based; settings: Rattus norvegicus;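 further: cell death triggered by IL-1 beta plus TNF-alpha plus IFN-gamma mixture; protective hits raise ATP signal compared with cytokine alone wells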
Protein skinhead-1 = biological target: T7, Protein skinhead-1 (Caenorhabditis elegans, UniProt P34707); assay type: functional
T7 sequence (P34707 whole entry): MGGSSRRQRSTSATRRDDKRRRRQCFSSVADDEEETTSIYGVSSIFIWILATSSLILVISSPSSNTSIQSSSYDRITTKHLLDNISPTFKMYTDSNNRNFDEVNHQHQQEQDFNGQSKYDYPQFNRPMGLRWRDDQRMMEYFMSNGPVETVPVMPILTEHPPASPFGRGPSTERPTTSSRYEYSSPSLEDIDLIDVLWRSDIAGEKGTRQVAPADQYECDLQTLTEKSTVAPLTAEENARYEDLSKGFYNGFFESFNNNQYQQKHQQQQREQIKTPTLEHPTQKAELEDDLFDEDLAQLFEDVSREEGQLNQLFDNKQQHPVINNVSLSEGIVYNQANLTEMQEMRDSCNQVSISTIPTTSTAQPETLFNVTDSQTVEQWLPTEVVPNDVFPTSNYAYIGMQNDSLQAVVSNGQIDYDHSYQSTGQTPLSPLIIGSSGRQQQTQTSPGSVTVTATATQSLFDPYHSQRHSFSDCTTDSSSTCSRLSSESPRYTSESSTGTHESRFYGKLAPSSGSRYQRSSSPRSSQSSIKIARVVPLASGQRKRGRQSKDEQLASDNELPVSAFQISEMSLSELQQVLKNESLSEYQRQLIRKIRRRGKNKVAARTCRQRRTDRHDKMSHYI

[8] = inhibitors of firefly luciferase expression or activity, dose response, H4 neuroglioma cells, luminescence (AID 1990); assay type: functional, cell-based
[9] = inhibitors of SNCA 5'UTR-driven reporter translation, confirmation, H4 neuroglioma cells, luminescence (AID 1988); assay type: functional, cell-based
[10] = Luminescence Cell-Based Dose Response HTS to Identify Inhibitors of 5'UTR Stem-Loop Driven Prion Protein mRNA Translation in H4 Neuroglioblastoma Cells. [Related pubchem assays: 1827 (Project Summary), 1813 (Primary HTS)]; assay type: functional

Cytochrome P450 2C9, sequence (P11712 whole entry): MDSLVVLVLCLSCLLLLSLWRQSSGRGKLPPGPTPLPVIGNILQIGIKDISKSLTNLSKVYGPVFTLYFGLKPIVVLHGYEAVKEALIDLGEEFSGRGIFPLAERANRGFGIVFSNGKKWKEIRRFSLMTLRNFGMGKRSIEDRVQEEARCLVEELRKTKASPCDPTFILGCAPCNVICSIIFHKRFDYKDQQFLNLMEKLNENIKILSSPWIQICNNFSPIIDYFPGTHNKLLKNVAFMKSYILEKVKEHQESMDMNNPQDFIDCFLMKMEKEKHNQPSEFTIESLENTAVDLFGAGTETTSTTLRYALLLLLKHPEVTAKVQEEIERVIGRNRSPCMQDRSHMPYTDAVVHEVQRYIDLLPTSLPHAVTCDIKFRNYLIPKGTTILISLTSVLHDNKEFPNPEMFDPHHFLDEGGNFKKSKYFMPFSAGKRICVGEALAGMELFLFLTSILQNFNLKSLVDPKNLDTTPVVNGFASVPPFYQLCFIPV

For COc1cc(/C=N/NC(=O)c2cccnc2)ccc1OC(=O)c1ccc2c(c1)OCO2, the AC50 (Cytochrome P450 2C9) was 7.94 µM (inconclusive), the EC50 [1] was > 99 µM (inactive) and the EC50 [2] was > 99 µM (inactive).

In the case of CC(C)(C)NC(=O)COc1ccc(-c2ccccc2)cc1, the IC50 [3] is reported as 12.3 µM (active), the IC50 [4] is reported as 52.6 µM (active) and the IC50 [5] is reported as 70.7 µM (active). For the same compound, the IC50 (Caspase-3) was 24.6 µM (active).

For CCOC(=O)c1sc(-c2ccc(OC)cc2)cc1N, the IC50 [3] was 7.33 µM (active), the IC50 [4] was 12.1 µM (active) and the IC50 [5] was 10.7 µM (active). For the same compound, the IC50 (Caspase-3) was 37.5 µM (active).

With CC(=O)c1c(C)oc2c1C(=O)c1ccccc1C2=O the AC50 [6] was 3.93 µM (active), the AC50 [7] was 6.68 µM (active) and the AC50 (A-375) was 41.3 µM (active). For the same compound, the AC50 (INS1) was 4.35 µM (active).

For FC(F)(F)c1ccnc(Oc2ccc(C3=NCCS3)cc2)c1, the IC50 [3] was 2.36 µM (active), the IC50 (Protein skinhead-1) was 94.5 µM (inactive) and the IC50 [4] was 4.94 µM (active). The IC50 [5] was 5.09 µM (active) and the IC50 (Caspase-3) was 11.5 µM (active).

For O=C(Nc1cc[n+](-c2nc3ccccc3nc2[N-]S(=O)(=O)c2ccccc2)cc1)c1cccs1, the EC50 [1] was > 99 µM (inactive) and the EC50 [2] was > 99 µM (inactive).

With O=C(Nc1ccc(Nc2ccncc2)cc1)c1ccc([N+](=O)[O-])cc1 the AC50 [7] was 7.22 µM (active) and the AC50 (A-375) was 33.1 µM (active).

In the case of Cc1nnc2nc(SCC(=O)NCCC3=CCCCC3)n(-c3ccc(Br)cc3)c(N)c1-2, the EC50 [8] is reported as 9.9 µM (active), the EC50 [9] is reported as 8.54 µM (active) and the EC50 [10] is reported as 15.4 µM (active). The AC50 [7] was 2.46 µM (active), the AC50 (A-375) was 26.9 µM (active) and the AC50 (INS1) was 5.09 µM (active).
